# According to US4174451A, “2-Furyl-(3,4-dimethyl-2-pyridyl)-carbinol” (Laboratorios Made, S.A., priority 1977, dated 1979):
# How the values were obtained:
# Swiss I.C.R. albino mice [1] = test: Thermal analgesia, 55° C. Hot Plate technique; type: in vivo; conditions: for Jumping time in sec. x ± S.E.M.: 30 minutes after administration, batches of 10 mice, mean ± S.E.M., control 63.7 ± 4.54; for Signif. of differences vs Control (jumping time): p value
# Experimental: The thermal analgesic effect was studied in Swiss I.C.R. albino mice. The 55° C. Hot Plate technique was used. Batches of 10 mice were used.
# The products under study were administered intraperitoneally, and after 30 minutes the mice were placed on the hot plate, count being made of the time, in seconds, it took them to jump. Batches of control animals were injected only with distilled water.
# Swiss I.C.R. albino mice [2] = test: Chemical analgesia, acetic acid writhing technique; type: in vivo; conditions: for No. of writhes x ± S.E.M.: 30 minutes before 0.25 ml of 1% acetic acid i.p., counted twenty minutes later, batches of 10 mice, control 78.4 ± 6.7
# Experimental: The analgesic effect was studied in Swiss I.C.R. albino mice, by the acetic acid writhing technique. Batches of 10 mice were made.
# The products under study were administered intraperitoneally, and 30 minutes later 0.25 ml of 1% acetic acid was injected intraperitoneally. A batch of control animals received only the acetic acid. Twenty minutes following administration of the acetic acid, the number of writhes in each mouse was counted.
# [3] = Acute toxicity in mice (LD50, Litchfield-Wilcoxon test); design: species or system Swiss I.C.R. albino mice; conditions: mouse, in vivo, ip; intraperitoneal, deaths counted 48 hours after treatment, both sexes, fasted 24 hours
# Experimental: An acute toxicity study was made on Swiss I.C.R. albino mice of both sexes of 30± 2 g in weight, kept without food for 24 hours prior to the experiment. Ambient temperature and relative humidity were kept constant. The products were administered intraperitoneally, the number of deaths being counted 48 hours after treatment. The lethal dose (LD50) was calculated by the Litchfield-Wilcoxon test.
# [4] = p value, 30 mg/kg intraperitoneal
# [5] = in words, compared with dextropropoxyphene
structure (smiles),measurement,setting,value
"CCC(=O)O[C@](Cc1ccccc1)(c1ccccc1)[C@H](C)CN(C)C [Dextropropoxyphene, dextropropoxyphene, reference compound]",Jumping time in sec. x ± S.E.M.,Swiss I.C.R. albino mice [1]; 30 mg/kg intraperitoneal,116.8 ± 12.43 s
same,Signif. of differences vs Control (jumping time),Swiss I.C.R. albino mice [1]; 30 mg/kg intraperitoneal,< 0.01
same,No. of writhes x ± S.E.M.,Swiss I.C.R. albino mice [2]; 30 mg/kg intraperitoneal,8.4 ± 4.04
same,Signif. of differences vs Control (writhes),Swiss I.C.R. albino mice [2]; [4],< 0.00005
"Cc1ccnc(C(O)c2ccco2)c1C (stereo not shown) [Product I, 2-furyl-(3,4-dimethyl-2-pyridyl)-carbinol]",LD50 at 48 h,[3],309 mg/kg
same,Jumping time in sec. x ± S.E.M.,Swiss I.C.R. albino mice [1]; 30 mg/kg intraperitoneal,110.1 ± 13.28 s
same,Signif. of differences vs Dextroprop. (jumping time),"Swiss I.C.R. albino mice [1]; 30 mg/kg intraperitoneal, vs dextropropoxyphene 30 mg/kg, N.S.",N.S.
same,thermal analgesic action,Swiss I.C.R. albino mice [1]; [5],same thermal analgesic action as the dextropropoxyphene
same,Signif. of differences vs Control (jumping time),Swiss I.C.R. albino mice [1]; 30 mg/kg intraperitoneal,< 0.005
same,No. of writhes x ± S.E.M.,Swiss I.C.R. albino mice [2]; 30 mg/kg intraperitoneal,53 ± 6.07
same,chemical analgesic action,Swiss I.C.R. albino mice [2]; [5],"chemical analgesic action, but of lesser intensity than that of dextropropoxyphene"
same,Signif. of differences vs Control (writhes),Swiss I.C.R. albino mice [2]; [4],< 0.02
same,Signif. of differences vs Dextroprop. (writhes),"Swiss I.C.R. albino mice [2]; p value, 30 mg/kg intraperitoneal, vs dextropropoxyphene 30 mg/kg",< 0.00005
